In patent US9232796B2, “Herbicidal compositions comprising 4-amino-3-chloro-5-fluoro-6-(4-chloro-2-fluoro-3-methoxyphenyl) pyridine-2-carboxylic acid or a derivative thereof and acetyl-CoA carboxylase (ACCase) inhibitors” (DOW AGROSCIENCES LLC, priority 2012, dated 2016):

System: CYPRO
Assay: Example VI in-water applied ternary mixtures, greenhouse, transplanted paddy rice weeds
Format: in vivo, Cyperus rotundus L.
Procedure: Weed seeds or nutlets of the desired test plant species were planted in puddled soil (mud) prepared by mixing a shredded, non-sterilized mineral soil (50.5 percent silt, 25.5 percent clay, and 24 percent sand, with a pH of about 7.6 and an organic matter content of about 2.9 percent) and water at a 1:1 volumetric ratio. The prepared mud was dispensed in 365 mL aliquots into 16-ounce (oz.) non-perforated plastic pots with a surface area of 86.59 square centimeters (cm^2) leaving a headspace of 3 centimeters (cm) in each pot. Mud was allowed to dry overnight prior to planting or transplanting. Rice seeds were planted in Sun Gro MetroMix® 306 planting mixture, which typically has a pH of 6.0 to 6.8 and an organic matter content of about 30 percent, in plastic plug trays. Seedlings at the second or third leaf stage of growth were transplanted into 860 mL of mud contained in 32-oz. non-perforated plastic pots with a surface area of 86.59 cm^2 4 days prior to herbicide application. The paddy was created by filling the headspace of the pots with 2.5 to 3 cm of water. When required to ensure good germination and healthy plants, a fungicide treatment and/or other chemical or physical treatment was applied. The plants were grown for 4-22 days in a greenhouse with an approximate 14 hr. photoperiod which was maintained at about 29° C. during the day and 26° C. during the night. Nutrients were added as Osmocote® (19:6:12, N:P:K+minor nutrients) at 2 g per 16-oz. pot and 4 g per 32-oz. pot. Water was added on a regular basis to maintain the paddy flood, and supplemental lighting was provided with overhead metal halide 1000-Watt lamps as necessary. The plants were employed for testing when they reached the first through fourth true leaf stage.
Treatments consisted of the benzyl ester of 4-amino-3-chloro-5-fluoro-6-(4-chloro-2-fluoro-3-methoxy-phenyl)pyridine-2-carboxylic acid (Compound A), formulated as an SC (suspension concentrate), an ACCase inhibitor herbicide, and a third herbicidal component, each applied alone and in ternary combination. Forms of compound A were applied on an acid equivalent basis.
The ACCase inhibitor component was applied on an active ingredient basis and included cyhalofop-R-butyl formulated as Clincher® G and metamifop formulated as Metamifop EC. Other herbicidal components were applied on an active ingredient or acid equivalent basis depending on the compound and included penoxsulam formulated as Grasp® SC, bentazon sodium formulated as Basagran®, triclopyr […] (TEA) salt formulated as Grandstand® R, benzobicyclon formulated as Benzobicyclon, benfuresate formulated as Full Slot® WG, pyraclonil formulated as Pyraclon® Flowable, mefenacet (technical grade material), and pretilachlor (technical grade material).
Treatment requirements for each compound or herbicidal component were calculated based upon the rates being tested, the concentration of active ingredient or acid equivalent in the formulation, an application volume of 1 mL per component per pot, and an application area of 86.59 cm^2 per pot.
For formulated compounds, a measured amount was placed in an individual 100 or 200 mL glass vial and was dissolved in a volume of 1.25% (v/v) Agri-Dex® crop oil concentrate to obtain application solutions.
For technical grade compounds, a weighed amount was placed in an individual 100 to 200 mL glass vial and was dissolved in a volume of acetone to obtain concentrated stock solutions.
Applications were made by injecting with a pipetter appropriate amounts of the application solutions, into the aqueous layer of the paddy. Control plants were treated in the same manner with the solvent blank. Applications were made so that all treated plant material received the same concentrations of acetone and crop oil concentrate.
The treated plants and control plants were placed in a greenhouse as described above and water was added as needed to maintain a paddy flood. […]

| SMILES | Visual Weed Control (%) - 21 DAA CYPRO Obs (2.19 gae/ha) [%] | Visual Weed Control (%) - 24 DAA CYPRO Obs (4 gae/ha) [%] | Visual Weed Control (%) - 24 DAA CYPRO Obs (8 gae/ha) [%] | Visual Weed Control (%) - 24 DAA CYPRO Obs (16 gae/ha) [%] | Visual Weed Control (%) - 21 DAA CYPRO Obs (Table 69, 4 gae/ha, 21 DAA) [%] | Visual Weed Control (%) - 21 DAA CYPRO Obs (Table 69, 8 gae/ha, 21 DAA) [%] | Visual Weed Control (%) - 21 DAA CYPRO Obs (Table 70, 4 gae/ha, 21 DAA) [%] | Visual Weed Control (%) - 21 DAA CYPRO Obs (Table 70, 8 gae/ha, 21 DAA) [%] | Visual Weed Control (%) - 21 DAA CYPRO Obs (22.5 gai/ha) [%] | Visual Weed Control (%) - 21 DAA CYPRO Obs (45 gai/ha) [%] | Visual Weed Control (%) - 24 DAA CYPRO Obs (90 gai/ha) [%] | Visual Weed Control (%) - 24 DAA CYPRO Obs (180 gai/ha) [%] | Visual Weed Control (%) - 21 DAA CYPRO Obs (Table 69, 90 gai/ha, 21 DAA) [%] | Visual Weed Control (%) - 21 DAA CYPRO Obs (Table 69, 180 gai/ha, 21 DAA) [%] | Visual Weed Control (%) - 21 DAA CYPRO Obs (Table 70, 180 gai/ha, 21 DAA) [%] |
| --- | --- | --- | --- | --- | --- | --- | --- | --- | --- | --- | --- | --- | --- | --- | --- |
| COc1c(Cl)ccc(-c2nc(C(=O)OCc3ccccc3)c(Cl)c(N)c2F)c1F [Compound A Benzyl Ester, benzyl ester of 4-amino-3-chloro-5-fluoro-6-(4-chloro-2-fluoro-3-methoxy-phenyl)pyridine-2-carboxylic acid] | 0 | 40 | 60 | 85 | 3 | 33 | 3 | 33 | – | – | – | – | – | – | – |
| CCCCOC(=O)[C@@H](C)Oc1ccc(Oc2ccc(C#N)cc2F)cc1 [Cyhalofop-butyl, butyl(2R)-2-[4-(4-cyano-2-fluorophenoxy)phenoxy]propanoate, reference compound] | – | – | – | – | – | – | – | – | 0 | 0 | 0 | 0 | 0 | 0 | 0 |
